# Experimental data taken from PubChem BioAssay (NCI).
# “And” between values parts separate entries of the source, which are not always exact repeats. Equal values may be shown once.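 1) Cells in 96-well plates. 2) Compound, 48 h, 5 concentrations. 3) Linear interpolation between surrounding doses. 4) Unreached endpoint = highest concentration. GI50 marks 50% less growth. TGI marks complete inhibition of growth.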 *1 amine or outer side, *2 acyl side, *3 side chain or, on linkers, in order; H or OH if unused. Where a SMILES comes first, the peptide text is derived from it. [ ]: non-standard residue; d: D form. The star is where a group is joined. ξ: configuration not given here. X15 = CCN(CC)c1ccc2cc(N*)c(=O)oc2c1; dIva = CC[C@@](C)(N)C(=O)O; X14 = O=C(OCCN[*:1])[*:2]; Aib = CC(C)(N)C(=O)O; ξP = O=C(O)C1CCCN1; βAla = NCCC(=O)O
# Legend:
# Test in all cases: growth of human tumour cells (NCI), 48 h
# BT-549 breast = system: BT-549 breast
# KM12 colon = system: KM12 colon
# HT29 colon = system: HT29 colon
# SNB-75 CNS = system: SNB-75 CNS
# MDA-MB-435 = system: MDA-MB-435
# HS 578T breast = system: HS 578T breast
# SNB-19 CNS = system: SNB-19 CNS
# NCI-H522 lung = system: NCI-H522 lung
# SF-539 CNS = system: SF-539 CNS
# SF-295 CNS = system: SF-295 CNS
Structure (SMILES),GI50 (BT-549 breast) [µM],TGI (BT-549 breast),GI50 (KM12 colon) [µM],TGI (KM12 colon) [µM],GI50 (HT29 colon) [µM],TGI (HT29 colon),GI50 (SNB-75 CNS) [µM],TGI (SNB-75 CNS),GI50 (MDA-MB-435) [µM],TGI (MDA-MB-435) [µM],GI50 (HS 578T breast) [nM],TGI (HS 578T breast),GI50 (SNB-19 CNS) [µM],TGI (SNB-19 CNS) [µM],GI50 (NCI-H522 lung) [µM],TGI (NCI-H522 lung),GI50 (SF-539 CNS) [µM],TGI (SF-539 CNS),GI50 (SF-295 CNS) [µM],TGI (SF-295 CNS)
O=C(CN1CCN(c2ccccc2)CC1)N1CCN(c2nnc(-c3ccc(Cl)cc3)c(-c3ccc(Cl)cc3)n2)CC1,4.34,63.6 µM,5.4,> 100,4.04,24 µM,14,71.1 µM,13.7,> 100,16500,> 100 µM,37.2,> 100,10.7,66.6 µM,5.91,> 100 µM,36,> 100 µM
OCC1OC(n2cnc3c(=S)nc[nH]c32)C(O)C1O (stereo unspecified),62.7,> 2500 µM,7.46,> 2500,4.72,> 2500 µM,34.1,> 2500 µM,3.89,> 2500,12800,> 2500 µM,> 65.2,> 1960,9.27,> 2500 µM,3.3,> 2500 µM,3.49,> 2500 µM
CN(C)CC1CCCCCC(CN(C)C)C1=O (stereo unspecified),3.46,15.9 µM,15.9,37.1,1.35,2.78 µM,12.2,27.5 µM,2.93,13.2,21000,> 64.3 µM,41.7,> 100,0.145,0.392 µM,4.16,15.7 µM,19.7,47.2 µM
Nc1nc(N)c(N=O)c(OCC2CCCCC2)n1,4.8,61 µM and > 84.9 µM,,> 100,6.88,> 100 µM and 74.2 µM,,42.3 µM and 50.2 µM,12.8,> 85.3,2810,21 µM and 46.1 µM,,> 100,10,> 73.3 µM and 50.7 µM,15.6,56.1 µM and 36.5 µM,,61.2 µM and 77.2 µM
CC(C)N1C(NNC(=O)c2cnccn2)=NS(=O)(=O)c2ccccc21,> 100,> 100 µM,> 100,> 100,> 100,> 100 µM,94.5,> 100 µM,> 100,> 100,> 100000,> 100 µM,> 100,> 100,> 100,> 100 µM,> 100,> 100 µM,> 100,> 100 µM
CCN(CC)c1ccc2cc(NC(=O)OCCNC(=O)CCNC(=O)[C@H](CC(C)C)NC(=O)C(C)(C)NC(=O)C(C)(C)NC(=O)[C@H](CC(C)C)NC(=O)CCNC(=O)C(C)(C)NC(=O)[C@H](CC(C)C)NC(=O)CCNC(=O)[C@@](C)(CC)NC(=O)[C@H](C)NC(=O)CCNC(=O)C(C)(C)NC(=O)[C@H](C)NC(=O)[C@@H]3CCCN3C(=O)[C@@](C)(CC)NC(=O)[C@H](Cc3ccccc3)NC(=O)C3CCCN3C(=O)C(C)(C)NC(=O)C3CCCN3C(=O)C(C)(C)NC(C)=O)c(=O)oc2c1 (stereo partly specified) (Ac-[Aib][ξP][Aib][ξP]F[dIva]PA[Aib][βAla]A[dIva][βAla]L[Aib][βAla]L[Aib][Aib]L[βAla][X14]-X15),0.00367,0.022 µM,0.00425,0.0348,0.00366,0.103 µM,0.00254,0.0242 µM,0.00353,0.0252,4.5,0.0548 µM,0.00355,0.0426,0.00305,0.0124 µM,0.00491,0.0202 µM,0.00316,0.0103 µM
Clc1nc(Cl)c(-c2ccccc2)c(Cl)n1,,7.09 µM,,14.6,,49.3 µM,,> 54.8 µM,,9.55,,> 100 µM,,28.5,,3.24 µM,,10.9 µM,,27.2 µM
Nc1c(C(=O)Nc2ccccc2)sc2nc3c(cc12)CN(Cc1ccccc1)CC3,16.8,92.3 µM,19.1,> 100,24.7,> 100 µM,,,3.43,71.6,2070,7.55 µM,18.3,> 100,32.5,> 100 µM,2.78,> 100 µM,5.45,> 100 µM
CCCCCCCOc1c(OC)cc(C2CC(=O)Nc3c2c(C)nn3-c2nc3ccccc3[nH]2)cc1OC (stereo unspecified),3.4,47.5 µM,2.81,9.81,4.06,> 100 µM,,,2.42,6.08,1350,4.43 µM,3.93,> 100,2.79,10.3 µM,1.66,3.11 µM,2.33,7.74 µM
CCCCNC(=O)NS(=O)(=O)c1ccc(N2N=C(c3cc(C)ccc3C)CC2c2cc(OC)c(OC)c(OC)c2)cc1 (stereo unspecified),2.73,9.28 µM,2.25,5.26,2.42,5.04 µM,2.12,5.83 µM,1.75,4.24,2200,5.78 µM,2.75,12.7,2.39,7.75 µM,1.9,3.88 µM,,
O=C(CN(/C=C/C(=O)C(F)(F)F)c1ccccc1)c1ccc(Cl)c(Cl)c1,10.9,29.5 µM,12.3,28.4,34.1,> 100 µM,,,14.9,31.9,14800,49.6 µM,20.3,46.4,11.1,25 µM,18,39.8 µM,12.4,27.5 µM
CCNCCNc1cc(C2CCCCC2)c(C#N)c2nc3ccccc3n12,1.77,3.64 µM,2.76,8.48,1.73,3.82 µM,1.52,3.4 µM,1.73,3.4,2400,5.42 µM,4.9,18.4,2.05,4.4 µM,,,1.8,3.36 µM
